Assay results: US20220313670A1, “Methods Of Treating Fabry Disease In Patients Having Renal Impairment” (Amicus Therapeutics, Inc., priority 2019, published 2022)

System: lyso-Gb3
Assay: Plasma lyso-Gb3 in Fabry patients on migalastat
Type: in vivo, human
Excerpt: In further embodiments, the method further comprises measuring lyso-Gb3 in one or more plasma samples from the patient. A first baseline lyso-Gb3 level may be determined during the first time period. As used herein, “baseline lyso-Gb3 level” refers to the lowest plasma lyso-Gb3 value measured during a given time period or dosing regimen. […] Thus, in further embodiments, the administration of the second time period is begun after an increase (e.g., of at least about 20, 25, 30, 33, 35, 40, 45 or 50% and/or 1, 1.25, 1.5, 1.75, 2, 2.25, 2.5 or 3 nM) above the first baseline lyso-Gb3 level is measured. […] Lyso-Gb3 levels may be measured at varying frequencies (e.g., about once every 2, 3, 4 or 5 months). It is thought that it takes about 3 months for a baseline lyso-Gb3 level to be established once a dosing regimen has been started.
Lyso-Gb3 can be measured via methods known in the art using validated assays. […] For example, one process of measuring plasma lyso-Gb3 is described in Hamler, Rick, et al. “Accurate quantitation of plasma globotriaosylsphingosine (lyso-Gb3) in normal individuals and Fabry disease patients by liquid chromatography—tandem mass spectrometry (LC—MS/MS).” Molecular Genetics and Metabolism, Volume 114.2 (2015):S51. In one or more embodiments, lyso-Gb3 is measured in samples from a patient's urine.

## OC[C@H]1NC[C@H](O)[C@@H](O)[C@H]1O [migalastat, (2R,3S,4R,55)-2-(hydroxymethyl) piperdine-3,4,5-triol]
Fabry patient P1, 18 Month Visit
  Lyso-Gb3: 11.1 nM/L
Fabry patient P1, 24 Month Visit
  Lyso-Gb3: 13.1 nM/L
Fabry patient P1, 30 Month Visit
  Lyso-Gb3: 10.8 nM/L
Fabry patient P1, 34-Month Visit
  Lyso-Gb3: 9.3 nM/L
Fabry patient P1, decline in renal function to eGFR of 32 mL/min/1.73 m^2
  change of plasma lyso-Gb3 from previous visits: has not shown clinically relevant changes
Fabry patient P3, August 2014, QOD
  Lyso-Gb3: 13.10 nmol/L
Fabry patient P3, August 2017, Q4D
  Lyso-Gb3: 9.85 nmol/L
Fabry patient P3, February 2014, QOD
  Lyso-Gb3: 11.10 nmol/L
Fabry patient P3, February 2015, QOD
  Lyso-Gb3: 10.80 nmol/L
Fabry patient P3, February 2018, Q7D
  Lyso-Gb3: 7.04 nmol/L
Fabry patient P3, January 2018, Q7D
  Lyso-Gb3: 9.04 nmol/L
Fabry patient P3, June 2015, QOD
  Lyso-Gb3: 9.30 nmol/L
Fabry patient P3, March 2011, QOD
  Lyso-Gb3: 24.15 nmol/L
Fabry patient P3, March 2016, QOD
  Lyso-Gb3: 8.46 nmol/L
Fabry patient P3, May 2017, Q4D
  Lyso-Gb3: 13.10 nmol/L
Fabry patient P3, November 2017, Q4D
  Lyso-Gb3: 8.55 nmol/L
Fabry patient P3, September 2010, QOD
  Lyso-Gb3: 27.30 nmol/L
Fabry patient P3, September 2015, QOD
  Lyso-Gb3: 7.36 nmol/L
